According to the SangsterLogP compilation:
Blank lines part the entries; values can stand above or below the compound they belong to.

Experiments:
[1] = method code SF-AS, from KuchaÅ™, M.; Rejholec, V.; Miller, V. (1985). Chromatographically determined lipophilicity and intramolecular interactions of bioactive compounds. Pharmacochemistry Library, 8, 321-331.; settings: pH 3.4
[2] = method code SF-HPLC, from DOI: 10.1080/01483919108049396; settings: pH 7.0
[3] = method code SF-AS, from DOI: 10.1021/jm00047a013, PMID: 7932583
[4] = not given; remark: listed apart in the source
[5] = method code SF-AS, from DOI: 10.1021/jm00075a005, PMID: 8246220; settings: pH 7.4
[6] = method code SF-AS, from DOI: 10.1016/s0021-9673(00)82600-x
[7] = method code G-GLC, from DOI: 10.1021/es00169a004
[8] = not given; remark: listed apart in the source
[9] = not given; remark: listed apart in the source
[10] = method code SF-AS, from DOI: 10.1002/jps.2600790421, PMID: 2352153
[11] = method code SF-HPLC, from DOI: 10.1021/jm00112a026, PMID: 1875345; settings: pH 7.4
[12] = method code SF-AS, from DOI: 10.1007/bf00165040, PMID: 3033523; settings: pH 7.4
[13] = not given; remark: listed apart in the source
[14] = not given; remark: listed apart in the source
[15] = method code SF-GLC, from DOI: 10.1007/bf00224496
[16] = method code SF-NMR, from DOI: 10.1021/jm00157a023, PMID: 3806574

Structure (SMILES): Nc1ncnc2c1ncn2C1CCC(CO)O1 (stereo unspecified)
logD [2]: -0.29

Structure (SMILES): c1ccc(N=Nc2ccccc2)cc1
logP [4]: 3.92

Structure (SMILES): Nc1cnn(-c2cccc(C(F)(F)F)c2)c(=O)c1Cl
logP [6]: 2.41

Structure (SMILES): Clc1cc(Cl)c(-c2c(Cl)c(Cl)cc(Cl)c2Cl)c(Cl)c1Cl
logP [7]: 7.21

Structure (SMILES): COc1ccc(C(=O)CCCC(=O)O)cc1
logD [1]: 1.63

Structure (SMILES): CCc1ccc(C(C)(O)C(=O)O)cc1 (stereo unspecified)
logD [1]: 1.9

Structure (SMILES): Clc1cccc(-c2c(Cl)ccc(Cl)c2Cl)c1Cl
logP [9]: 6.04

Structure (SMILES): CC(C)[C@@H](C(=O)N[C@@H](Cc1ccccc1)C(=O)NC(=O)NCCCl)N(CCCl)N=O
logP [10]: 3.47

Structure (SMILES): OC(CN1C2CCCCCCC21)Cn1ccnc1 (stereo unspecified)
logD [11]: 1.84

Structure (SMILES): Clc1cc(Cl)c(-c2c(Cl)cccc2Cl)c(Cl)c1
logP [7]: 5.37

Structure (SMILES): Clc1cc(Cl)cc(-c2cc(Cl)c(Cl)cc2Cl)c1
logP [9]: 5.68

Structure (SMILES): Clc1cc(Cl)c(Cl)c(-c2ccccc2)c1Cl
logP [7]: 5.94

Structure (SMILES): O=NN(CCCl)C(Cc1ccccc1)C(=O)NC(=O)NCCCl (stereo unspecified)
logP [10]: 3.25

Structure (SMILES): OC(CN1C2CCc3ccccc3C21)Cn1ccnc1 (stereo unspecified)
logD [11]: 2.15

Structure (SMILES): CC(C)NCC(O)COc1cccc2[nH]ccc12 (stereo unspecified)
logP [4]: 1.76

Structure (SMILES): C=C(C)C(=O)OCC(O)COc1ccc(C(C)(C)c2ccc(OCC(O)COC(=O)C(=C)C)cc2)cc1 (stereo unspecified)
logP: 3.34

Structure (SMILES): Nc1ncnc2c1nc(Sc1ccc(Cl)cc1)n2[C@@H]1O[C@@H]2COP(=O)(O)O[C@H]2[C@H]1O
logD [12]: -0.98

Structure (SMILES): Clc1cc2c(cc1Cl)Oc1c(Cl)c(Cl)c(Cl)c(Cl)c1O2
logP [14]: 7.79

Structure (SMILES): OC(CN1C2CCCC21)Cn1ccnc1 (stereo unspecified)
logD [11]: 0.37

Structure (SMILES): C1=Cc2cccc3cccc1c23
logP [8]: 4.07

Structure (SMILES): CCOCCOCCOP(=S)(N1CC1)N1CC1
logP [16]: 0.38

Structure (SMILES): CCOCCOCCOP(=S)(N1CC1(C)C)N1CC1(C)C (stereo unspecified)
logP [16]: 0.47

Structure (SMILES): Clc1ccc(Cl)c(-c2cccc(Cl)c2Cl)c1
logP [9]: 5.81

Structure (SMILES): O=NN(CCCl)C(CC(=O)NCCCl)C(=O)NC(=O)NCCCl (stereo unspecified)
logP [10]: 3.15

Structure (SMILES): S=P(N1CCOCCOCCOCCOCCOCC1)(N1CC1)N1CC1
logP [16]: 0.75

More lines, now with the values ahead:

logD [1]: 1.37
Structure (SMILES): CCC(O)(C(=O)O)c1ccccc1 (stereo unspecified)

logD [2]: -1.71
Structure (SMILES): O=c1[nH]cnc2c1ncn2[C@H]1C[C@H](O)[C@@H](CO)O1

logP: 2.16
Structure (SMILES): C=C(C)C(=O)OCc1ccccc1

logP [3]: 0.71
Structure (SMILES): CO[C@H]1N([C@H]2C[C@H](F)[C@@H](CO)O2)C(=O)NC(=O)[C@]1(C)Cl

logD [5]: 1.26
Structure (SMILES): CCON1C(=O)CC2(CCCC2)C1=O

logP [8]: 6.58
Structure (SMILES): c1ccc2c(c1)-c1ccc3ccc4cccc5cc-2c1c3c45

logP [3]: 0.6
Structure (SMILES): CO[C@@H]1N([C@H]2C[C@H](F)[C@@H](CO)O2)C(=O)NC(=O)[C@@]1(C)I

logD [12]: -2.03
Structure (SMILES): CSc1nc2c(N)ncnc2n1C1OC2COP(=O)(O)OC2C1O (stereo unspecified)

logP [13]: 2.08
Structure (SMILES): O=C1NC(Cc2ccccc2)C(=O)NC1Cc1ccccc1 (stereo unspecified)

logP [14]: 5.75
Structure (SMILES): Clc1cc(Cl)c2[nH]c3c(Cl)cc(Cl)cc3c2c1

logP [4]: 1.77
Structure (SMILES): CC1=CC(=O)c2cc(C)ccc2C1=O

logD [2]: 0.67
Structure (SMILES): O=C(Nc1ccn([C@H]2C[C@H](O)[C@@H](CO)O2)c(=O)n1)c1ccccc1

logP [8]: 6.84
Structure (SMILES): c1ccc2c(c1)ccc1cc3ccc4ccccc4c3cc12

logP [6]: 1.19
Structure (SMILES): CNc1cnn(-c2ccccc2)c(=O)c1Cl

logP [13]: 1.21
Structure (SMILES): O=C1NC(Cc2c[nH]c3ccccc23)C(=O)NC1Cc1ccc(O)cc1 (stereo unspecified)

logP [15]: 4.56
Structure (SMILES): C=C1C2CCC(C2)C1(C)C (stereo unspecified)

logP [14]: 6.14
Structure (SMILES): Clc1cc2c(cc1Cl)=c1cc(Cl)c(Cl)cc1=2

logD [5]: 2.23
Structure (SMILES): COc1ccc(CON2C(=O)CC3(CCCC3)C2=O)cc1

logP: 2.16
Structure (SMILES): C=C(C)C(=O)OCCC(C)OC(=O)C(=C)C (stereo unspecified)

logP [3]: 0.54
Structure (SMILES): CO[C@@H]1N([C@H]2C[C@H](F)[C@@H](CO)O2)C(=O)NC(=O)[C@@]1(C)Br

logP [13]: 0.25
Structure (SMILES): O=C1CNC(=O)C(Cc2ccccc2)N1 (stereo unspecified)

logP [15]: 4.63
Structure (SMILES): C=C1CCC2(C(C)C)CC12 (stereo unspecified)

logP [15]: 4.85
Structure (SMILES): CC1(C)C2CC3C(C2)C31C

logD [12]: -1.05
Structure (SMILES): CC(C)C(C)Sc1nc2c(N)ncnc2n1C1OC2COP(=O)(O)OC2C1O (stereo unspecified)

logD [5]: 1.77
Structure (SMILES): O=C1CC2(CCCC2)C(=O)N1Oc1ccccc1

logP [6]: 2.67
Structure (SMILES): CN(C)c1cnn(-c2cccc(C(F)(F)F)c2)c(=O)c1Cl
